Reference: the NIST ThermoML archive (doi:10.1016/j.tca.2013.02.010)

What was measured:
[1] = 101.33 kPa, Liquid, Pycnometric method
[2] = refractive index (Na D-line) (dimensionless); conditions: 298.15 K; 101.33 kPa; Liquid; Standard Abbe refractometry
[3] = xn = mol fraction of the nth substance listed; conditions: 308.15 K, 101 kPa, Liquid, Direct dilatometry
[4] = excess molar enthalpy (molar enthalpy of mixing); xn = mol fraction of the nth substance listed; conditions: 101 kPa, Liquid, Flow calorimetry

NC=O [formamide]
[1]
Conditions	mass density [kg/m3]
298.15 K	1129.04
308.15 K	1120.45

Conditions	refractive index
[2]	1.4461

CCCO [propan-1-ol]
[1]
Conditions	mass density [kg/m3]
298.15 K	799.76
308.15 K	791.48

Conditions	refractive index
[2]	1.3835

NC=O [formamide] + CCCO
[3]
Conditions	excess molar volume [m3/mol]
x1 = 0.0615	-3e-08
x1 = 0.1052	-4.3e-08
x1 = 0.165	-6e-08
x1 = 0.1937	-6.9e-08
x1 = 0.2453	-7.8e-08
x1 = 0.2856	-9.1e-08
x1 = 0.3317	-1.05e-07
x1 = 0.372	-1.12e-07
x1 = 0.3949	-1.25e-07
x1 = 0.4236	-1.35e-07
x1 = 0.4639	-1.48e-07
x1 = 0.5213	-1.61e-07
x1 = 0.5903	-1.71e-07
x1 = 0.6394	-1.71e-07
x1 = 0.6765	-1.68e-07
x1 = 0.7225	-1.59e-07
x1 = 0.7686	-1.42e-07
x1 = 0.8031	-1.23e-07
x1 = 0.8492	-1e-07
x1 = 0.8837	-7.8e-08
x1 = 0.9124	-5.5e-08
x1 = 0.9411	-3.3e-08

[4]
Conditions	excess molar enthalpy [kcal/mol]
298.15 K, x1 = 0.0624	0.0614
298.15 K, x1 = 0.0881	0.082
298.15 K, x1 = 0.1208	0.105
298.15 K, x1 = 0.1479	0.123
298.15 K, x1 = 0.1832	0.141
298.15 K, x1 = 0.2231	0.156
298.15 K, x1 = 0.254	0.166
298.15 K, x1 = 0.3018	0.1757
298.15 K, x1 = 0.3775	0.1809
298.15 K, x1 = 0.452	0.1788
298.15 K, x1 = 0.4832	0.1771
298.15 K, x1 = 0.5364	0.1678
298.15 K, x1 = 0.5953	0.158
298.15 K, x1 = 0.6672	0.1441
298.15 K, x1 = 0.6958	0.137
298.15 K, x1 = 0.7521	0.122
298.15 K, x1 = 0.7958	0.109
298.15 K, x1 = 0.8443	0.0913
298.15 K, x1 = 0.8956	0.0686
298.15 K, x1 = 0.9208	0.0559
298.15 K, x1 = 0.9526	0.0361
298.15 K, x1 = 0.9666	0.028
308.15 K, x1 = 0.0582	0.0631
308.15 K, x1 = 0.079	0.0825
308.15 K, x1 = 0.104	0.103
308.15 K, x1 = 0.1374	0.125
308.15 K, x1 = 0.1624	0.141
308.15 K, x1 = 0.2082	0.164
308.15 K, x1 = 0.2416	0.1769
308.15 K, x1 = 0.275	0.1869
308.15 K, x1 = 0.3332	0.1979
308.15 K, x1 = 0.4124	0.202
308.15 K, x1 = 0.4666	0.2036
308.15 K, x1 = 0.5082	0.1986
308.15 K, x1 = 0.5666	0.1919
308.15 K, x1 = 0.625	0.1769
308.15 K, x1 = 0.679	0.164
308.15 K, x1 = 0.725	0.15
308.15 K, x1 = 0.775	0.131
308.15 K, x1 = 0.8166	0.113
308.15 K, x1 = 0.8666	0.0877
308.15 K, x1 = 0.9124	0.0621
308.15 K, x1 = 0.9416	0.0425
308.15 K, x1 = 0.9582	0.0306

NC=O [formamide] + CC(C)O
[3]
Conditions	excess molar volume [m3/mol]
x1 = 0.0455	-3.2e-08
x1 = 0.1021	-6.4e-08
x1 = 0.1327	-7.9e-08
x1 = 0.1725	-1.05e-07
x1 = 0.2155	-1.34e-07
x1 = 0.2692	-1.69e-07
x1 = 0.3269	-2.06e-07
x1 = 0.3535	-2.27e-07
x1 = 0.3867	-2.48e-07
x1 = 0.4245	-2.71e-07
x1 = 0.485	-3e-07
x1 = 0.5191	-3.13e-07
x1 = 0.5729	-3.28e-07
x1 = 0.6237	-3.32e-07
x1 = 0.6951	-3.31e-07
x1 = 0.7543	-3.11e-07
x1 = 0.7907	-2.9e-07
x1 = 0.825	-2.61e-07
x1 = 0.8735	-2e-07
x1 = 0.8999	-1.71e-07
x1 = 0.9331	-1.18e-07
x1 = 0.9745	-5.1e-08

[4]
Conditions	excess molar enthalpy [kcal/mol]
298.15 K, x1 = 0.056	0.0588
298.15 K, x1 = 0.073	0.0736
298.15 K, x1 = 0.099	0.0963
298.15 K, x1 = 0.125	0.111
298.15 K, x1 = 0.162	0.134
298.15 K, x1 = 0.2	0.149
298.15 K, x1 = 0.253	0.167
298.15 K, x1 = 0.291	0.1747
298.15 K, x1 = 0.329	0.1809
298.15 K, x1 = 0.4	0.1855
298.15 K, x1 = 0.468	0.1845
298.15 K, x1 = 0.537	0.179
298.15 K, x1 = 0.597	0.1699
298.15 K, x1 = 0.662	0.157
298.15 K, x1 = 0.702	0.1477
298.15 K, x1 = 0.728	0.139
298.15 K, x1 = 0.766	0.126
298.15 K, x1 = 0.812	0.108
298.15 K, x1 = 0.849	0.0913
298.15 K, x1 = 0.878	0.077
298.15 K, x1 = 0.901	0.0636
298.15 K, x1 = 0.941	0.0406
308.15 K, x1 = 0.0666	0.0798
308.15 K, x1 = 0.0916	0.103
308.15 K, x1 = 0.1166	0.124
308.15 K, x1 = 0.1501	0.1475
308.15 K, x1 = 0.1812	0.165
308.15 K, x1 = 0.229	0.1886
308.15 K, x1 = 0.2702	0.2022
308.15 K, x1 = 0.3082	0.2141
308.15 K, x1 = 0.3666	0.2239
308.15 K, x1 = 0.425	0.2297
308.15 K, x1 = 0.4958	0.2297
308.15 K, x1 = 0.5624	0.2239
308.15 K, x1 = 0.629	0.2094
308.15 K, x1 = 0.6832	0.1919
308.15 K, x1 = 0.7124	0.1809
308.15 K, x1 = 0.7503	0.164
308.15 K, x1 = 0.7958	0.14
308.15 K, x1 = 0.8374	0.115
308.15 K, x1 = 0.8708	0.0932
308.15 K, x1 = 0.8874	0.0805
308.15 K, x1 = 0.9082	0.0674
308.15 K, x1 = 0.954	0.0337

CC(C)O [propan-2-ol]
[1]
Conditions	mass density [kg/m3]
298.15 K	781.25
308.15 K	772.3

Conditions	refractive index
[2]	1.3753
